Patent publication US20140213538A1, “LYSOPHOSPHATIDIC ACID RECEPTOR ANTAGONISTS” (InterMune, Inc., priority 2013, published 2014)

Legend:
LPA/S1P GPCR of interest = biological target: T1, LPA/S1P GPCR of interest (Homo sapiens, UniProt Q92633); assay: Beta-Arrestin based assay (PathHunter); format: cell-based
T1 construct: host or cells: CHO
How it was run: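 EA Parental CHO cells (DiscoverX) were transfected with FuGENE (Roche) using CMV promoter-driven DNA constructs encoding the LPA/S1P GPCR of interest fused to a ProLink tag. Beta-arrestin recruitment in agonist mode was assessed 24-48 hrs later with PathHunter kits. Tests ran in quadruplicate in white 384 well plates, and end point luminescence was fit to a 4 parameter logistic function.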

LPA1 = LPA1 (Homo sapiens, UniProt Q92633); assay: LPA1 Migration Assay (Oris); format: cell-based; design: host or cells: primary fibroblasts (lung, dermal), HFL-1, 3T3 and CHO cells expressing LPA1R; settings: read-out: Cell Migration EC50
Chain of LPA1 (Q92633 whole entry): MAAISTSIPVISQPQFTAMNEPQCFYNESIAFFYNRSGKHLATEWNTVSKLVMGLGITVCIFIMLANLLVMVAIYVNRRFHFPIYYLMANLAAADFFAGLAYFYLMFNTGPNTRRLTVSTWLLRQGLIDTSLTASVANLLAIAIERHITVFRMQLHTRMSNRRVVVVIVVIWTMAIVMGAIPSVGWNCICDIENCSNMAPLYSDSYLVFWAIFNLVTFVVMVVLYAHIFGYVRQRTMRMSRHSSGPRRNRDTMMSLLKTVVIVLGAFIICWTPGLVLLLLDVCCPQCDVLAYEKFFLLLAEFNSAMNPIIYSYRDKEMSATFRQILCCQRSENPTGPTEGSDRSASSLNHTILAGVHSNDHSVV
Text: LPA1 Migration Assay Migration of primary fibroblasts (including lung, dermal), HFL-1, 3T3 and CHO cells expressing LPA1R were monitored using the Oris™ assay (Platypus Technologies, Madison, Wis.). These cells were dye (Cell Tracker Green™) loaded and serum starved for 12-24 hrs. In response to chemoattractants such as LPA and serum, the cells migrated inward in to the exclusion (detection) zone. After fixing, fluorescent cells in the detection zone were counted using a high content reader. The ability of LPA1 antagonists to inhibit cell migration is quantified by plotting cell number vs. compound concentration and curve fitting the resulting dose-response curve to a 4 parameter logistic function.

T1 sequence (Q92633 whole entry): as above

Structure (SMILES)	EC50 (LPA/S1P GPCR of interest) [nM]	EC50 (LPA1) [nM]
C[C@@H](OC(=O)Nc1cccnc1C#Cc1cc2sc(C3(C(=O)O)CC3)cc2s1)c1ccccc1 [IT115]	50 to 500	> 500
C[C@@H](OC(=O)Nc1c(C#Cc2cc3sc(C4(C(=O)O)CC4)cc3s2)cnn1C)c1c(F)c(F)c(F)c(F)c1F [IT118]	> 500	> 500
Cc1noc(-c2ccc(-c3ccc(S(N)(=O)=O)cc3)cc2)c1NC(=O)O[C@H](C)c1ccccc1 [IT129]	50 to 500	> 500
CC(=O)N(C(C)=O)S(=O)(=O)c1ccc(-c2ccc(-c3onc(C)c3NC(=O)O[C@H](C)c3ccccc3)cc2)cc1 [IT130]	> 500	> 500
CC(=O)NS(=O)(=O)c1ccc(-c2ccc(-c3onc(C)c3NC(=O)O[C@H](C)c3ccccc3)cc2)cc1 [IT131]	50 to 500	> 500
Cc1nsc(-c2cc3sc(-c4ccc(CC(=O)O)cc4)cc3s2)c1NC(=O)O[C@H](C)c1ccccc1 [IT133]	50 to 500	> 500
C[C@@H](OC(=O)Nc1c(-c2cc3sc(-c4ccc(CC(=O)O)cc4F)cc3s2)cnn1C)c1ccccc1 [IT134]	50 to 500	> 500
Cc1noc(-c2ccc(-c3ccc(S(=O)(=O)NC(=O)C4CC4)cc3)cc2)c1NC(=O)O[C@H](C)c1ccccc1 [IT138]	< 50	50 to 500
Cc1noc(-c2ccc(-c3ccc(S(C)(=O)=O)nc3)cc2)c1NC(=O)O[C@H](C)c1ccccc1 [IT139]	50 to 500	50 to 500
Cc1nsc(-c2ccc(-c3nnc(CC(=O)O)o3)cc2)c1NC(=O)O[C@H](C)c1ccccc1 [IT142]	> 500	> 500
C[C@@H](OC(=O)Nc1c(-c2cc3sc(C#CC4(C(=O)O)CC4)cc3s2)nnn1C)c1ccccc1 [IT145]	< 50	> 500
C[C@@H](OC(=O)Nc1c(-c2cc3sc(-c4ccc(CC(=O)O)s4)cc3s2)cnn1C)c1ccccc1 [IT147]	50 to 500	> 500
Cc1nsc(-c2cc3sc(-c4ccc(CC(=O)O)s4)cc3s2)c1NC(=O)O[C@H](C)c1ccccc1 [IT148]	> 500	> 500
C[C@@H](OC(=O)Nc1c(-c2cc3sc(-c4ccc(C5(C(=O)O)CC5)cc4)cc3s2)nnn1C)c1ccccc1 [IT149]	< 50	50 to 500
C[C@@H](OC(=O)Nc1c(-c2ccc(-c3ccc(C(C(=O)O)C4COC4)cc3)cc2)cnn1C)c1ccccc1 (some centres unmarked) [IT150]	50 to 500	50 to 500
Cc1nsc(-c2cc3sc(-c4cc(F)c(CC(=O)O)c(F)c4)cc3s2)c1NC(=O)O[C@H](C)c1ccccc1 [IT156]	50 to 500	> 500

Further lines, results first:

EC50 (LPA/S1P GPCR of interest) [nM]	EC50 (LPA1) [nM]	Structure (SMILES)
> 500	> 500	CNS(=O)(=O)c1ccc(-c2ccc(-c3onc(C)c3NC(=O)O[C@H](C)c3ccccc3)cc2)cc1 [IT128]
50 to 500	> 500	C[C@@H](OC(=O)Nc1c(-c2cc3sc(-c4ccc(CC(=O)O)cc4)cc3s2)cnn1C)c1ccccc1 [IT132]
50 to 500	> 500	Cc1nsc(-c2cc3sc(-c4ccc(CC(=O)O)cc4F)cc3s2)c1NC(=O)O[C@H](C)c1ccccc1 [IT135]
50 to 500	> 500	C[C@@H](OC(=O)Nc1c(-c2cc3sc(-c4ccc(CC(=O)O)cc4Cl)cc3s2)cnn1C)c1ccccc1 [IT140]
> 500	> 500	Cc1nsc(-c2ccc(-c3ccc(CC(=O)O)s3)cc2)c1NC(=O)O[C@H](C)c1ccccc1 [IT141]
< 50	50 to 500	C[C@@H](OC(=O)Nc1c(-c2ccc(-c3ccc(C(C(=O)O)C4CCC4)cc3)cc2)cnn1C)c1ccccc1 (some centres unmarked) [IT151]
> 500	> 500	Cc1noc(-c2ccc(-c3ccc(S(=O)(=O)N4CCCC4)cc3)cc2)c1NC(=O)O[C@H](C)c1ccccc1 [IT153]
> 500	> 500	Cc1noc(-c2ccc(C#Cc3ccccc3C(=O)O)cc2)c1NC(=O)O[C@H](C)c1ccccc1 [IT154]
50 to 500	> 500	C[C@@H](OC(=O)Nc1c(-c2cc3sc(-c4cc(F)c(CC(=O)O)c(F)c4)cc3s2)cnn1C)c1ccccc1 [IT157]
